This passage reports IC50 results from BindingDB's records for doi:10.1016/j.bmc.2018.07.019 (The Scripps Research Institute, 2018).

The structures appear in SMILES notation.

The assay can be described thus: Inhibition of ATG-Myc (unknown origin) expressed in CEF cells assessed as inhibition of microtumor formation.
With `Cn1nncc1-c1cc(-c2ccc(C(N)=O)cc2)cc(-c2ccc(C#N)cc2)n1`, the IC50 turned out to be 40 µM.

Regarding `COc1ccc(-c2cc(-c3ccc(C(N)=O)cc3)nc(-c3ccccc3)n2)cc1`, the IC50 was over 100 µM.

In the case of `N#Cc1ccc(-c2cc(-c3ccc(C(N)=O)cc3)cc(-c3cccc(F)c3)n2)cc1`, the IC50 is over 100 µM. For the compound `c1coc(-c2cc(-c3nccs3)cc(-c3ccc(-c4nccs4)cc3)n2)c1`, the IC50 was over 100 µM. With `N#Cc1ccc(-c2cc(-c3ccc(C(N)=O)cc3)nc(-c3ccco3)n2)cc1`, the IC50 is 7 µM. Next, `CS(=O)(=O)NC(=O)c1ccc(-c2cc(-c3ccc(C#N)cc3)nc(-c3ccco3)c2)cc1`: 10 µM; `NC(=O)c1ccc(-c2cc(-c3ccc(-c4nccs4)cc3)nc(-c3ccco3)c2)cc1`: 5 µM. Next, `N#Cc1ccc(-c2cc(-c3ccc(C(N)=O)cc3)cc(-c3cncs3)n2)cc1`: 30 µM; `N#Cc1ccc(-c2cc(-c3ccc(-c4nnn[nH]4)cc3)cc(-c3ccco3)n2)cc1`: 2 µM; `N#Cc1ccc(-c2cc(-c3ccc(C(N)=O)cc3)cc(-c3cnco3)n2)cc1`: 5 µM. Consider `N#Cc1ccc(-c2cc(-c3ccc(C(=O)NN)cc3)cc(-c3ccco3)n2)cc1`, for which the IC50 is over 100 µM. `N#Cc1ccc(-c2cc(-c3ccc(C(N)=O)cc3)cc(-c3ccco3)n2)cc1`: the half-inhibitory concentration (IC50) came out at 3 µM. As for `NC(=O)c1ccc(-c2cc(-c3ccc(-c4cnco4)cc3)nc(-c3ccco3)c2)cc1`, the figure is 2.5 µM; as for `Cn1ccnc1-c1cc(-c2ccc(C(N)=O)cc2)cc(-c2ccc(C#N)cc2)n1`, 40 µM. Next, `N#Cc1ccc(-c2cc(-c3ccc(C(N)=O)cc3)nc(-c3cc[n+]([O-])cc3)n2)cc1`: over 100 µM.
